Values of other authors as cited in patent publication US7365077B2, “Piperazine bis-amide derivatives and their use as antagonists of the orexin receptor” (SmithKline Beecham p.l.c., priority 2001, dated 2008).
No end group written: not given here.

Legend:
freely-feeding rats = settings: central administration, 4 hour time period
orexin receptors = settings: central administration at the onset of the normal sleep period, rat

Q: What does the source list for “orexin-A: Peptide ligand (agonist) of the orexin receptors; human sequence given in b87 (QPLPDCCRQKTCSCRLYELLHGAGNHAAGILTL; ends and bridges not checked; cysteine pairing not given here; UniProt O43612 34-66, looked up)”?
A: increase in food intake over control rats receiving vehicle (freely-feeding rats): approximately four-fold; effect on arousal (orexin receptors): dose-related increase in arousal
